The values that follow come from patent publication US7037905B2, “Pharmaceutical use of boronic acids and esters thereof” (Novo Nordisk A/S, priority 2002, dated 2006).

Read-outs that look alike come from different tables or passages of the source.

The target of this test is T1, HSL (Homo sapiens, UniProt Q05469).
T1 sequence (Q05469 1-1076): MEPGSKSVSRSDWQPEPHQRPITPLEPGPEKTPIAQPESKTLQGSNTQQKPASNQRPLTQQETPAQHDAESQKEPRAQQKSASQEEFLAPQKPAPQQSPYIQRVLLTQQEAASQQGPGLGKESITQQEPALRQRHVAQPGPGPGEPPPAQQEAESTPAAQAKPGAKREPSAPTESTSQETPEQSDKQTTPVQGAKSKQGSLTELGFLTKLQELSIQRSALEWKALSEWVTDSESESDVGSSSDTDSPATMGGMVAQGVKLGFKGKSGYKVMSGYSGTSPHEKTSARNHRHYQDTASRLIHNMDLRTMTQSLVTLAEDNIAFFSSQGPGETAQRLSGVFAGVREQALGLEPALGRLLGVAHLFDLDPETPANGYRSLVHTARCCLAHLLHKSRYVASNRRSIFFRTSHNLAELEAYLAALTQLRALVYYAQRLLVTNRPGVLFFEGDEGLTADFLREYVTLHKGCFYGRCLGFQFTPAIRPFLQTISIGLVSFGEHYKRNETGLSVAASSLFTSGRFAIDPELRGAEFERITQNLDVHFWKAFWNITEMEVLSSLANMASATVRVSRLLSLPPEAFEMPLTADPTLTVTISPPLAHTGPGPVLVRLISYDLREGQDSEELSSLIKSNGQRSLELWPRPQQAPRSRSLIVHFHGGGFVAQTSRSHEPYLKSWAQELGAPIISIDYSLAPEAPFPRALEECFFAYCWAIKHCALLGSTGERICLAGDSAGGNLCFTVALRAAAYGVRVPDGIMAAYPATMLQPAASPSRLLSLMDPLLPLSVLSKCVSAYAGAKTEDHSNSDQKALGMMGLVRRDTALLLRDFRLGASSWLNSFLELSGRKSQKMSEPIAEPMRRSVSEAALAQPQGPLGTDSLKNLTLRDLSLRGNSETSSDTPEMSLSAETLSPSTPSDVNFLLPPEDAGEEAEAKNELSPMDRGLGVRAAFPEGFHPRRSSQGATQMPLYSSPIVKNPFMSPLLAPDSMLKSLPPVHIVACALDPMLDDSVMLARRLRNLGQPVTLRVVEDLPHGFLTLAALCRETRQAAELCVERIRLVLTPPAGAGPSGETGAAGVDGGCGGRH
As to the kind of experiment: TEST 3180.2 HSL: percent inhibition at 10 μM, 3H-Triolein lipid emulsion. The class given is biochemical. As to conditions: for activity at 10 µM: read-out: TEST 3180.2 HSL Activity (%).

Where [1] appears, read: 10 μM concentration, percent activity relative to an un-inhibited sample, 30 min preincubation, 30 min reaction at 25° C.

Consider `N#Cc1ccc(B(O)O)s1` [Example 95, 5-Cyanothiophene-2-boronic acid], for which, under setting [1], the activity at 10 µM was found to be 49%.
On the same count and under the same terms, then `OB(O)c1ccccc1Cl` [Example 52, 2-Chlorophenylboronic acid], with 86%; and `OB(O)c1cc(Br)cc(Br)c1` [Example 44, 3,5-Dibromophenylboronic acid], with 71%; and `OB(O)c1cc(F)cc(F)c1` [Example 59, 3,5-Difluorophenylboronic acid], with 25%.
Regarding `COc1ccc(Cl)cc1B(O)O` [Example 43, 5-CHLORO-2-METHOXYPHENYLBORONIC ACID], under setting [1], the activity at 10 µM is 36%.
On the same count and under the same terms, then `Ic1cccc(OCC2COB(c3ccccc3)O2)c1` (stereo not drawn) [Example 80, 4-(3-Iodo-phenoxymethyl)-2-phenyl-[1,3,2]dioxaborolane], with 80%.
Regarding `OB(O)c1ccco1` [Example 93, Furan-2-boronic acid], under setting [1], the activity at 10 µM was 89%.
For the compound `OB(O)c1c(Cl)cccc1Cl` [Example 50, 2,6-Dichlorophenylboronic acid], under setting [1], the activity at 10 µM was 88%.
In the case of `OB(O)c1ccccc1Br` [Example 48, 2-Bromophenylboronic acid], the activity at 10 µM under setting [1] turned out to be 81%.
The same measure, in the same setting: then `CCCCCC1COB(c2ccc(C(=O)O)c(F)c2)OC1` [Example 79, 2-Fluoro-4-(5-pentyl-[1,3,2]dioxaborinan-2-yl)-benzoic acid], with 100%; and `OB(O)c1cccc(Cl)c1Cl` [Example 70, 2,3-Dichlorophenylboronic acid], with 66%.
On the same count and under the same terms, then `CC1(C)COB(c2cc(F)cc(F)c2)OC1` [Example 35, 2-(3,5-DIFLUOROPHENYL)-5,5-DIMETHYL-1,3,2-DIOXABORINANE], with 38%.
For `OB(O)c1ccc(F)c(F)c1` [Example 69, 3,4-Difluorophenylboronic acid], the activity at 10 µM under setting [1] worked out at 45%.
Turning to `CC1(C)COB(c2ccc(Br)cc2)OC1` [Example 37, 2-(4-BROMOPHENYL)-5,5-DIMETHYL-1,3,2-DIOXABORINANE], under setting [1], the activity at 10 µM came to 83%.
Still for that read-out and setting: the value for `OB(O)c1cc(F)c(F)c(F)c1` [Example 63, 3,4,5-Trifluorophenylboronic acid] was 26%; that for `CC1(C)COB(c2ccccc2C#N)OC1` [Example 39, 2-(5,5-Dimethyl-[1,3,2]dioxaborinan-2-yl)-benzonitrile] was 97%.
On the same count and under the same terms, then `CC(=O)c1ccc(B(O)O)s1` [Example 96, 5-Acetylthiophene-2-boronic acid], with 68%; and `OB(O)c1cccc(F)c1` [Example 60, 3-Fluorophenylboronic acid], with 47%.
For the compound `COC1OC2COB(c3ccccc3)OC2C(O)C1O` (stereo not drawn) [Example 78, 6-Methoxy-2-phenyl-hexahydro-pyrano[3,2-a][1,3,2]dioxaborinine-7,8-diol], under setting [1], the “TEST 3180.2 HSL Activity (%)” value turned out to be 82%.
Turning to `Cc1cc(B2OCCCO2)sc1C=O` [Example 87, 2-(2-FORMYL-3-METHYLTHIEN-5-YL)-1,3,2-DIOXABORINANE], the activity at 10 µM was 75%.
With `OB(O)c1ccc(Cl)s1` [Example 94, 5-Chlorothiophene-2-boronic acid], the activity at 10 µM under setting [1] was 17%.
On the same count and under the same terms, then `OB(O)c1cc(C(F)(F)F)cc(C(F)(F)F)c1` [Example 56, 3,5-Bis(Trifluoromethyl)phenylboronic acid], with 89%; and `CC1(C)COB(c2ccccc2F)OC1` [Example 40, 2-(2-Fluoro-phenyl)-5,5-dimethyl-[1,3,2]dioxaborinane], with 68%.
Same read-out and setting: the value for `OB(O)c1cccc(Br)c1` [Example 49, 3-Bromophenylboronic acid] was 33%.
On to `OB(O)c1ccc(OCc2ccccc2)c(F)c1` [Example 62, 3-FLUORO-4-BENZYLOXYPHENYL)BORONIC ACID], for which the “TEST 3180.2 HSL Activity (%)” value under setting [1] came to 93%.
On the same count and under the same terms, the value for `CC1(C)OB(c2ccsc2[Si](C)(C)C)OC1(C)C` [Example 81, 3′-(4,4,5,5-TETRAMETHYL-1,3,2-DIOXABOROLAN-2-YL)-2-trimethylsilylthiophen] was 85%.
For `O=Cc1sccc1B(O)O` [Example 84, 2-FORMYL-3-THIOPHENEBORONIC ACID], under setting [1], the activity at 10 µM amounted to 92%.
Regarding `OB(O)c1cccc(C(F)(F)F)c1` [Example 55, 3-Trifluoromethylphenylboronic acid], the activity at 10 µM under setting [1] came out at 21%.
As for `Cc1cccc(B(O)O)c1` [Example 51, 3-Methylphenylboronic acid], the activity at 10 µM under setting [1] was found to be 64%.
On to `OB(O)c1ccc(F)cc1` [Example 47, 4-fluorophenylboronic acid], for which, under setting [1], the activity at 10 µM came out at 65%.
On to `CC(=O)Nc1ccc(B2OC(C)(C)C(C)(C)O2)cc1` [Example 68, 4′-(4,4,5,5-TETRAMETHYL-1,3,2-DIOXABOROLAN-2-YL)ACETANILIDE], for which the activity at 10 µM under setting [1] turned out to be 86%.
As to `OB(O)c1cccc(OC(F)(F)F)c1` [Example 54, 3-(TRIFLUOROMETHOXY)BENZENEBORONIC ACID], the activity at 10 µM under setting [1] came to 27%.
On to `Cc1ccc(B(O)O)o1` [Example 89, 5-METHYLFURAN-2-BORONIC ACID], for which the activity at 10 µM under setting [1] was 87%.
For the compound `Cc1csc(B(O)O)c1` [Example 88, 4-METHYLTHIOPHENE-2-BORONIC ACID], under setting [1], the activity at 10 µM is 49%.
Still for that read-out and setting: the value for `Cc1ccc(B(O)O)s1` [Example 90, 5-Methylthiophene-2-boronic acid] was 48%; that for `OB(O)c1cc(Cl)ccc1Cl` [Example 65, 2,5-Dichlorophenylboronic acid] was 55%.
Still for that read-out and setting: the value for `OB(O)c1cccc(-c2ccccc2)c1` [Example 46, 3-phenylphenylboronic acid] was 96%; that for `OB(O)c1cc(Cl)cc(Cl)c1Cl` [Example 64, 2,3,5-Trichlorophenylboronic acid] was 76%; that for `OB(O)c1csc2ccccc12` [Example 83, 1-BENZOTHIOPHEN-3-YLBORONIC ACID] was 76%.
The same measure, in the same setting: then `OB(O)c1cc2ccccc2o1` [Example 91, BENZO[B]FURAN-2-BORONIC ACID], with 57%.
Consider `CC1(C)COB(c2ccccc2Cl)OC1` [Example 38, 2-(2-chloroPHENYL)-5,5-DIMETHYL-1,3,2-DIOXABORINANE], for which the activity at 10 µM under setting [1] stood at 89%.
On the same count and under the same terms, the value for `CCOc1cccc(B(O)O)c1` [Example 45, 3-Ethoxyphenylboronic acid] was 90%.
As to `CC1(C)OB(c2csc([N+](=O)[O-])c2)OC1(C)C` [Example 82, 4′-(4,4,5,5-TETRAMETHYL-1,3,2-DIOXABOROLAN-2-YL)2-nitrothiophene], the “TEST 3180.2 HSL Activity (%)” value under setting [1] worked out at 96%.
As to `OB(O)c1ccc(F)c(Cl)c1` [Example 58, 3-Chloro-4-fluorophenylboronic acid], the activity at 10 µM under setting [1] came to 35%.
The same measure, in the same setting: the value for `c1ccc2c(c1)OB(c1ccsc1)O2` [Example 85, 2-THIEN-3-YL-1,3,2-BENZODIOXABOROLE] was 89%; that for `OB(O)c1cccs1` [Example 97, Thiophene-2-boronic acid] was 66%.
Still for that read-out and setting: the value for `CCOC(=O)c1ccccc1B1OCC(C)(C)CO1` [Example 42, 2-(5,5-Dimethyl-[1,3,2]dioxaborinan-2-yl)-benzoic acid ethyl ester] was 93%; that for `OB(O)c1sccc1Br` [Example 98, 3-Bromothiophene-2-boronic acid] was 84%.
On the same count and under the same terms, then `OB(O)c1ccc(Br)c(F)c1F` [Example 71, 2,3-Difluoro-4-bromophenylboronic acid], with 61%.
On to `CCCCCc1ccc(B(O)O)c(F)c1F` [Example 61, 2,3-DIFLUORO-4-PENTYLPHENYLBORONIC ACID], for which the activity at 10 µM under setting [1] worked out at 85%.
For the compound `OB(O)c1cc2ccccc2s1` [Example 92, Benzo[B]thiophene-2-boronic acid], the activity at 10 µM under setting [1] was found to be 53%.
Consider `OB(O)c1cccc(Cl)c1` [Example 53, 3-Chlorophenylboronic acid], for which the activity at 10 µM under setting [1] came out at 34%.
As to “3-Fluoro-4-phenylboronic acid [Example 72]”, under “10 µM”, the “TEST 3180.2 HSL Activity (%)” value turned out to be 97%.
Regarding `OB(O)c1ccc(OCc2ccccc2)cc1` [Example 33, 4-Benzyloxyphenylboronic acid], under setting [1], the activity at 10 µM worked out at 85%.
